# Source: ChEMBL document CHEMBL1136657, “Novel ether derivatives of mannopeptimycin glycopeptide antibiotic” (2003)
# Tests used:
# [1] = tested on: Candida albicans; assay: Minimum inhibitory concentration against Candida albicans GC 3066 was determined; format: functional
# [2] = Minimum inhibitory concentration against SCN (GC 4548) was determined; format: functional
# [3] = tested on: Pseudomonas aeruginosa; assay: Minimum inhibitory concentration against Pseudomonas aeruginosa (GC 2214) control was determined; format: functional
# [4] = tested on: Enterococcus faecalis; assay: Minimum inhibitory concentration against Enterococcus faecalis (GC 4555) was determined; format: functional
# [5] = tested on: Escherichia coli; assay: Minimum inhibitory concentration against Escherichia coli (GC 4560) was determined; format: functional
# [6] = tested on: Staphylococcus aureus; assay: Minimum inhibitory concentration against Staphylococcus aureus (GC 4541 was determined; format: functional
# [7] = tested on: Morganella morganii; assay: Minimum inhibitory concentration against Morganella morganii (GC 4381) was determined; format: functional
# [8] = tested on: Staphylococcus aureus; assay: Minimum inhibitory concentration against Staphylococcus aureus (GC 4544) was determined; format: functional
# [9] = tested on: Enterococcus faecium; assay: Minimum inhibitory concentration against Enterococcus faecium (GC 4556) was determined; format: functional
# [10] = Minimum inhibitory concentration against SCN (GC 4551) was determined; format: functional
# [11] = tested on: Staphylococcus haemolyticus; assay: Minimum inhibitory concentration against Staphylococcus haemolyticus (GC 4546) was determined
# [12] = tested on: Staphylococcus aureus; assay: Minimum inhibitory concentration against Staphylococcus aureus (GC 4545) was determined; format: functional
# [13] = tested on: Enterococcus faecalis; assay: Minimum inhibitory concentration against Enterococcus faecalis (GC 4554) was determined; format: functional
# [14] = tested on: Enterococcus faecalis; assay: Minimum inhibitory concentration against Enterococcus faecalis (GC 2691) was determined; format: functional
# [15] = tested on: Streptococcus agalactiae; assay: Minimum inhibitory concentration against Streptococcus agalactiae (GC4564) was determined; format: functional
# [16] = tested on: Enterococcus faecium; assay: Minimum inhibitory concentration against Enterococcus faecium (GC 2243) was determined; format: functional
# [17] = tested on: Bacillus cereus; assay: Minimum inhibitory concentration against Bacillus cereus (GC 4561) was determined; format: functional
# [18] = tested on: Micrococcus luteus; assay: Minimum inhibitory concentration against Sarcina lutea (GC 4562) was determined; format: functional
# [19] = tested on: Staphylococcus aureus; assay: Minimum inhibitory concentration against Staphylococcus aureus (GC 4543) was determined; format: functional
# [20] = tested on: Staphylococcus aureus; assay: Minimum inhibitory concentration against Staphylococcus aureus (GC 2216) was determined; format: functional
# [21] = Minimum inhibitory concentration against SCN (GC 4547) was determined; format: functional
# [22] = tested on: Enterococcus faecalis; assay: Minimum inhibitory concentration against Enterococcus faecalis (GC 3059) was determined; format: functional
# [23] = tested on: Staphylococcus aureus; assay: Minimum inhibitory concentration against Staphylococcus aureus (GC 4542) was determined; format: functional
# [24] = tested on: Enterococcus faecalis; assay: Minimum inhibitory concentration against Enterococcus faecalis (GC 4553) was determined; format: functional
# [25] = tested on: Escherichia coli; assay: Minimum inhibitory concentration against Escherichia coli (GC 4564) was determined; format: functional
# [26] = tested on: Staphylococcus aureus; assay: Minimum inhibitory concentration against Staphylococcus aureus (GC 1131) was determined; format: functional
# [27] = tested on: Streptococcus pneumoniae; assay: Minimum inhibitory concentration against Streptococcus pneumoniae (GC 1894) was determined; format: functional
# [28] = tested on: Streptococcus pneumoniae; assay: Minimum inhibitory concentration against Streptococcus pneumoniae (GC 6242) was determined; format: functional
# [29] = tested on: Streptococcus pneumoniae; assay: Minimum inhibitory concentration against Streptococcus pneumoniae (GC 4565) was determined; format: functional
# [30] = tested on: Streptococcus pyogenes; assay: Minimum inhibitory concentration against Streptococcus pyogenes (GC 4563) was determined; format: functional
# [31] = tested on: Staphylococcus aureus; assay: Minimum inhibitory concentration against Staphylococcus aureus (GC 3051) was determined; format: functional
# [32] = tested on: Enterococcus faecalis; assay: Minimum inhibitory concentration against Enterococcus faecalis (GC 6189) was determined; format: functional
# [33] = tested on: Enterococcus faecium; assay: Minimum inhibitory concentration against Enterococcus faecium (GC 4557) was determined; format: functional
# [34] = tested on: Enterococcus faecalis; assay: Minimum inhibitory concentration against Enterococcus faecalis (GC 2242) was determined; format: functional
# [35] = tested on: Enterococcus faecalis; assay: Minimum inhibitory concentration against Enterococcus faecalis (GC 4552) was determined; format: functional
# [36] = tested on: Escherichia coli; assay: Minimum inhibitory concentration against Escherichia coli (GC 2203) was determined; format: functional
# [37] = tested on: Staphylococcus aureus; assay: Minimum inhibitory concentration against Staphylococcus aureus (GC 3066) was determined; format: functional
# [38] = tested on: Enterococcus avium; assay: Minimum inhibitory concentration against Enterococcus avium (GC 4558) was determined; format: functional
# [39] = Minimum inhibitory concentration against SCN (GC 4549) was determined; format: functional
# [40] = Minimum inhibitory concentration against SCN (GC 6257) was determined; format: functional
# [41] = tested on: Staphylococcus aureus; assay: Minimum inhibitory concentration against Staphylococcus aureus smith; format: functional
# [42] = tested on: Mus musculus; assay: In vivo activity against Staphylococcus aureus smith was determined after iv administration in mice; format: functional
smiles,measurement,setting,value
COc1ccc2cc(CO[C@@H]3[C@@H](O[C@H]4[C@H](O)[C@H](O)[C@@H](Oc5ccc(C[C@H]6NC(=O)[C@H]([C@@H](C)c7ccccc7)NC(=O)CNC(=O)[C@H](CO)NC(=O)[C@@H]([C@@H](O)[C@@H]7CN=C(N)N7[C@H]7O[C@H](O)[C@@H](O)[C@H](O)[C@@H]7O)NC(=O)[C@H]([C@@H](O)[C@@H]7CN=C(N)N7)NC6=O)cc5)O[C@@H]4CO)O[C@H](CO)[C@@H](O)[C@@H]3O)ccc2c1,MIC,[1],> 64 µg/mL
same,MIC,[2],64 µg/mL
same,MIC,[3],> 128 µg/mL
same,MIC,[4],> 128 µg/mL
same,MIC,[5],32 µg/mL
same,MIC,[6],64 µg/mL
same,MIC,[7],> 128 µg/mL
same,MIC,[8],128 µg/mL
same,MIC,[9],> 128 µg/mL
same,MIC,[10],64 µg/mL
same,MIC,[11],64 µg/mL
same,MIC,[12],128 µg/mL
same,MIC,[13],> 128 µg/mL
same,MIC,[14],> 128 µg/mL
same,MIC,[15],32 µg/mL
same,MIC,[16],128 µg/mL
same,MIC,[17],128 µg/mL
same,MIC,[18],16 µg/mL
same,MIC,[19],64 µg/mL
same,MIC,[20],128 µg/mL
same,MIC,[21],64 µg/mL
same,MIC,[22],> 128 µg/mL
same,MIC,[23],> 128 µg/mL
same,MIC,[24],128 µg/mL
same,MIC,[25],> 128 µg/mL
same,MIC,[26],128 µg/mL
same,MIC,[27],16 µg/mL
same,MIC,[28],32 µg/mL
same,MIC,[29],32 µg/mL
same,MIC,[30],64 µg/mL
same,MIC,[31],128 µg/mL
same,MIC,[32],> 128 µg/mL
same,MIC,[33],32 µg/mL
same,MIC,[34],> 128 µg/mL
same,MIC,[35],> 128 µg/mL
same,MIC,[36],> 128 µg/mL
same,MIC,[37],128 µg/mL
same,MIC,[38],128 µg/mL
same,MIC,[39],64 µg/mL
same,MIC,[40],32 µg/mL
COc1ccc2cc(CO[C@H]3[C@H](O)[C@@H](CO)OC(O[C@H]4[C@H](O)[C@H](O)[C@@H](Oc5ccc(C[C@H]6NC(=O)[C@H]([C@@H](C)c7ccccc7)NC(=O)CNC(=O)[C@H](CO)NC(=O)[C@@H]([C@@H](O)[C@@H]7CN=C(N)N7[C@H]7O[C@H](O)[C@@H](O)[C@H](O)[C@@H]7O)NC(=O)[C@H]([C@@H](O)[C@@H]7CN=C(N)N7)NC6=O)cc5)O[C@@H]4CO)[C@H]3O)ccc2c1 (some centres undefined),MIC,[1],> 64 µg/mL
same,MIC,[2],1 µg/mL
same,MIC,[3],> 128 µg/mL
same,MIC,[4],8 µg/mL
same,MIC,[5],1 µg/mL
same,MIC,[6],2 µg/mL
same,MIC,[7],> 128 µg/mL
same,MIC,[8],4 µg/mL
same,MIC,[9],8 µg/mL
same,MIC,[10],2 µg/mL
same,MIC,[11],1 µg/mL
same,MIC,[12],2 µg/mL
same,MIC,[13],8 µg/mL
same,MIC,[14],8 µg/mL
same,MIC,[15],0.5 µg/mL
same,MIC,[16],8 µg/mL
same,MIC,[17],2 µg/mL
same,MIC,[18],0.25 µg/mL
same,MIC,[19],2 µg/mL
same,MIC,[20],2 µg/mL
same,MIC,[21],2 µg/mL
same,MIC,[22],8 µg/mL
same,MIC,[23],1 µg/mL
same,MIC,[24],8 µg/mL
same,MIC,[25],128 µg/mL
same,MIC,[26],4 µg/mL
same,MIC,[27],0.12 µg/mL
same,MIC,[28],0.25 µg/mL
same,MIC,[29],0.25 µg/mL
same,MIC,[30],0.5 µg/mL
same,MIC,[31],2 µg/mL
same,MIC,[32],4 µg/mL
same,MIC,[33],0.25 µg/mL
same,MIC,[34],8 µg/mL
same,MIC,[35],8 µg/mL
same,MIC,[36],128 µg/mL
same,MIC,[37],2 µg/mL
same,MIC,[38],2 µg/mL
same,MIC,[39],1 µg/mL
same,MIC,[40],1 µg/mL
COc1ccc2cc(COC[C@H]3O[C@H](O[C@H]4[C@H](O)[C@H](O)[C@@H](Oc5ccc(C[C@H]6NC(=O)[C@H]([C@@H](C)c7ccccc7)NC(=O)CNC(=O)[C@H](CO)NC(=O)[C@@H]([C@@H](O)[C@@H]7CN=C(N)N7[C@H]7O[C@H](O)[C@@H](O)[C@H](O)[C@@H]7O)NC(=O)[C@H]([C@@H](O)[C@@H]7CN=C(N)N7)NC6=O)cc5)O[C@@H]4CO)[C@@H](O)[C@@H](O)[C@@H]3O)ccc2c1,MIC,[1],> 64 µg/mL
same,MIC,[2],0.5 µg/mL
same,MIC,[3],0.12 µg/mL
same,MIC,[4],8 µg/mL
same,MIC,[5],> 64 µg/mL
same,MIC,[6],1 µg/mL
same,MIC,[7],> 64 µg/mL
same,MIC,[8],2 µg/mL
same,MIC,[9],8 µg/mL
same,MIC,[10],2 µg/mL
same,MIC,[11],1 µg/mL
same,MIC,[12],1 µg/mL
same,MIC,[13],8 µg/mL
same,MIC,[14],0.25 µg/mL
same,MIC,[15],0.25 µg/mL
same,MIC,[16],8 µg/mL
same,MIC,[17],64 µg/mL
same,MIC,[18],2 µg/mL
same,MIC,[19],1 µg/mL
same,MIC,[20],2 µg/mL
same,MIC,[21],1 µg/mL
same,MIC,[22],4 µg/mL
same,MIC,[41],1 µg/mL
same,MIC,[23],2 µg/mL
same,MIC,[24],8 µg/mL
same,MIC,[25],> 64 µg/mL
same,MIC,[26],2 µg/mL
same,MIC,[27],8 µg/mL
same,MIC,[28],≤ 0.06 µg/mL
same,MIC,[29],0.5 µg/mL
same,MIC,[30],8 µg/mL
same,MIC,[31],0.12 µg/mL
same,MIC,[32],4 µg/mL
same,MIC,[33],8 µg/mL
same,MIC,[34],8 µg/mL
same,MIC,[35],8 µg/mL
same,ED50,[42],0.12 mg/kg
same,MIC,[36],1 µg/mL
same,MIC,[37],2 µg/mL
same,MIC,[38],2 µg/mL
same,MIC,[39],1 µg/mL
same,MIC,[40],0.5 µg/mL
COc1ccc2cc(CO[C@H]3[C@H](O)[C@H](O)[C@@H](O[C@H]4[C@H](O)[C@H](O)[C@@H](Oc5ccc(C[C@H]6NC(=O)[C@H]([C@@H](C)c7ccccc7)NC(=O)CNC(=O)[C@H](CO)NC(=O)[C@@H]([C@@H](O)[C@@H]7CN=C(N)N7[C@H]7O[C@H](O)[C@@H](O)[C@H](O)[C@@H]7O)NC(=O)[C@H]([C@@H](O)[C@@H]7CN=C(N)N7)NC6=O)cc5)O[C@@H]4CO)O[C@@H]3CO)ccc2c1,MIC,[1],> 64 µg/mL
same,MIC,[2],0.12 µg/mL
same,MIC,[3],> 64 µg/mL
same,MIC,[4],2 µg/mL
same,MIC,[5],0.25 µg/mL
same,MIC,[6],0.5 µg/mL
same,MIC,[7],64 µg/mL
same,MIC,[8],1 µg/mL
same,MIC,[9],2 µg/mL
same,MIC,[10],0.25 µg/mL
same,MIC,[11],0.25 µg/mL
same,MIC,[12],0.5 µg/mL
same,MIC,[13],2 µg/mL
same,MIC,[14],2 µg/mL
same,MIC,[15],≤ 0.06 µg/mL
same,MIC,[16],2 µg/mL
same,MIC,[17],1 µg/mL
same,MIC,[18],≤ 0.06 µg/mL
same,MIC,[19],0.5 µg/mL
same,MIC,[20],1 µg/mL
same,MIC,[21],0.5 µg/mL
same,MIC,[22],2 µg/mL
same,MIC,[41],0.5 µg/mL
same,MIC,[23],0.25 µg/mL
same,MIC,[24],2 µg/mL
same,MIC,[25],32 µg/mL
same,MIC,[26],0.5 µg/mL
same,MIC,[27],≤ 0.06 µg/mL
same,MIC,[28],≤ 0.06 µg/mL
same,MIC,[29],≤ 0.06 µg/mL
same,MIC,[30],≤ 0.06 µg/mL
same,MIC,[31],1 µg/mL
same,MIC,[32],1 µg/mL
same,MIC,[33],1 µg/mL
same,MIC,[34],2 µg/mL
same,MIC,[35],2 µg/mL
same,ED50,"[42]; Mus musculus, iv, read-out: ED50",0.06 mg/kg
same,MIC,[36],32 µg/mL
same,MIC,[37],1 µg/mL
same,MIC,[38],2 µg/mL
same,MIC,[39],0.12 µg/mL
same,MIC,[40],0.25 µg/mL
